According to ChEMBL document CHEMBL5104111, “Boron-Containing heterocycles as promising pharmacological agents” (Bioorg Med Chem, 2022):
In brackets after ≈: the same amount, converted by molar mass.

Assays:
[1] = system: LN-229; test: Anticancer activity against human LN-229 cells assessed as cell growth inhibition by trypan blue exclusion assay; type: functional, cell-based
[2] = system: A549; test: Cytotoxicity against human A549 cells assessed as cell growth inhibition; type: functional
[3] = system: Mycolicibacterium smegmatis; test: Antibacterial activity against Mycobacterium smegmatis assessed as bacterial growth inhibition; type: functional
[4] = system: Escherichia coli; test: Antibacterial activity against Escherichia coli ATCC 25922 assessed as bacterial growth inhibition incubated for 72 hrs by broth microdilution method; type: functional
[5] = system: Mycolicibacterium smegmatis; test: Antibacterial activity against Mycobacterium smegmatis ATCC 700084 assessed as bacterial growth inhibition incubated for 72 hrs by broth microdilution method; type: functional
[6] = system: Mycobacterium tuberculosis; test: Antibacterial activity against Mycobacterium tuberculosis H37Rv ATCC 27294 assessed as bacterial growth inhibition by radiometry method; type: functional
[7] = system: Mycobacterium tuberculosis; test: Antibacterial activity against Mycobacterium tuberculosis H37Rv ATCC 25618 assessed as bacterial growth inhibition incubated for 5 days by fluorescence based assay; type: functional, organism-based; details: H37Rv ATCC 25618, 120 h
[8] = system: HepG2; test: Cytotoxicity against human HepG2 cells assessed as cell growth inhibition incubated for 72 hrs by Cell Titer Glo assay; type: functional, cell-based; details: HepG2, 72 h
[9] = Protein binding in human serum; type: ADME, cell-free; details: read-out: PB (converted)
[10] = Protein binding in mouse plasma; type: ADME, cell-free; details: read-out: PB (converted)
[11] = system: Bacillus cereus; test: Antibacterial activity against Bacillus cereus assessed as bacterial growth inhibition at 100 ug incubated for 48 hrs by disk diffusion method; type: functional; details: read-out: IZ
[12] = system: Aspergillus niger; test: Antifungal activity against Aspergillus niger ATCC 20408 assessed as fungal growth inhibition by plate colony counting method; type: functional
[13] = system: MDA-MB-231; test: Anticancer activity against human MDA-MB-231 cells assessed as cell growth inhibition incubated for 72 hrs by MTT assay; type: functional, cell-based; details: MDA-MB-231, 72 h
[14] = system: MIA PaCa-2; test: Anticancer activity against human MIA PaCa-2 cells assessed as cell growth inhibition incubated for 72 hrs by MTT assay; type: functional, cell-based; details: MIA PaCa-2, 72 h
[15] = system: Prototheca zopfii; test: Antimicrobial activity against Prototheca zopfii assessed as microbial growth inhibition by CLSI protocol based assay; type: functional
[16] = system: Klebsiella aerogenes; test: Antibacterial activity against Enterobacter aerogenes ATCC 13048 assessed as bacterial growth inhibition at 10 mg/ml by hollow agar method; type: functional; details: read-out: IZ
[17] = system: Escherichia coli; test: Antibacterial activity against Escherichia coli assessed as bacterial growth inhibition; type: functional
[18] = system: Candida albicans; test: Antifungal activity against Candida albicans ATCC 14053 assessed as fungal growth inhibition by broth microdilution method; type: functional
[19] = system: Fusarium oxysporum; test: Antifungal activity against Fusarium oxysporum VKM F-140 assessed as fungal growth inhibition by broth microdilution method; type: functional
[20] = system: Vanrija humicola; test: Antifungal activity against Cryptococcus humicola ATCC 9949 assessed as fungal growth inhibition by broth microdilution method; type: functional
[21] = system: Aspergillus niger; test: Antifungal activity against Aspergillus niger ATCC 16404 assessed as fungal growth inhibition by broth microdilution method; type: functional
[22] = system: Candida albicans; test: Antifungal activity against Candida albicans assessed as fungal growth inhibition at 25 ug incubated for 48 hrs by disk diffusion method; type: functional; details: read-out: IZ
[23] = system: Verticillium dahliae; test: Antifungal activity against Verticillium dahliae assessed as fungal growth inhibition at 50 ug incubated for 96 hrs by disk diffusion method; type: functional; details: read-out: IZ
[24] = system: Aspergillus niger; test: Antifungal activity against Aspergillus niger assessed as fungal growth inhibition at 50 ug incubated for 96 hrs by disk diffusion method; type: functional; details: read-out: IZ
[25] = system: Aspergillus niger; test: Antifungal activity against Aspergillus niger assessed as fungal growth inhibition at 25 ug incubated for 48 hrs by disk diffusion method; type: functional; details: read-out: IZ
[26] = system: Pseudomonas aeruginosa; test: Antibacterial activity against Pseudomonas aeruginosa assessed as bacterial growth inhibition by broth microdilution method; type: functional
[27] = system: Streptococcus mutans; test: Antibiofilm activity against Streptococcus mutans ATCC 27351 assessed as bacterial viability at 0.9 uM by SYTO/PI staining based inverted microscopy relative to control; type: functional
[28] = system: Streptococcus mutans; test: Antibiofilm activity against Streptococcus mutans ATCC 27351 assessed as bacterial viability at 0.2 uM by SYTO/PI staining based inverted microscopy relative to control; type: functional
[29] = Cmax in rat at 25 mg/kg, po; type: ADME, organism-based; set-up: dose 25 mg/kg, route po; details: in vivo
[30] = AUC (0 to 24 hrs) in rat at 25 mg/kg, po; type: ADME, organism-based; set-up: time < 24 hr, dose 25 mg/kg, route po; details: in vivo
[31] = Dose normalized AUC (0 to infinity) in C57BL/6 mouse at 5.5 mg/kg, iv qd measured for 0.083 to 24 hrs post dose by LC-MS/MS analysis; type: ADME, organism-based; details: in vivo, time 0.083-24 hrs
[32] = Half life in C57BL/6 mouse at 30 mg/kg, po qd via gavage measured for 0.25 to 24 hrs post dose by LC-MS/MS analysis; type: ADME, organism-based; details: in vivo, time 0.25-24 hrs
[33] = AUC (0 to 24 hrs) in C57BL/6 mouse at 30 mg/kg, po qd via gavage measured for 0.25 to 24 hrs post dose by LC-MS/MS analysis; type: ADME, organism-based; set-up: dose 30 mg/kg, time 0.25-24 hrs, route po; details: in vivo
[34] = system: Mycobacterium tuberculosis; test: Antibacterial activity against Mycobacterium tuberculosis H37Rv infected in C57BL/6J mouse model of acute TB infection administered once daily for 8 days and measured after 24 hrs; type: functional; details: 216 h, time 9 day
[35] = Dose normalized AUC (0 to 24 hrs) in C57BL/6 mouse at 30 mg/kg, po qd via gavage measured for 0.25 to 24 hrs post dose by LC-MS/MS analysis; type: ADME, organism-based; details: in vivo, time 0.25-24 hrs
[36] = system: Aspergillus niger; test: Antifungal activity against Aspergillus niger assessed as fungal growth inhibition incubated for 48 hrs by agar diffusion method; type: functional; details: Aspergillus niger

Question: For `CC(C)[C@@H]1[NH2+][B-](c2ccc(F)cc2F)(c2ccc(F)cc2F)OC1=O`, which IC50 [1] is on record?
Answer: The IC50 was 49 µM.

Question: What does the source list for `O=C(NCCOCCOCCNC(=O)c1ccc2c(c1)B(O)OC2)c1ccc2c(c1)COB2O`?
Answer: MIC99 [2]: > 10 µM; MIC [3]: 0.78 µM

Question: What does the source list for `NC(=O)N1N=Cc2ccccc2B1O`?
Answer: MIC [4]: 16 µg/mL (≈ 84.7 µM); MIC [5]: 2 µg/mL (≈ 10.6 µM)

Question: With `OB1c2ccccc2NC(=S)N1c1ccccc1` as the compound, how does the MIC [6] read?
Answer: Its MIC is 8 µg/mL (≈ 31.5 µM).

Question: Which IC50 [7] does the source give for `CCS(=O)(=O)N1N=Cc2ccc(Oc3ccc(C(F)(F)F)cc3/C=N/O)cc2B1O` here?
Answer: The IC50 was 0.09 µM.

Question: And the IC50 [8]?
Answer: The IC50 was greater than 100 µM.

Question: What about the fraction unbound [9] of the same compound?
Answer: The fraction unbound was 0.12.

Question: What about the fraction unbound [10] of the same compound?
Answer: The fraction unbound was 0.015.

Question: Which zone of inhibition at 100 µg/disc [11] does the source give for `CCNC(=S)N1N=Cc2c(F)cccc2B1O` here?
Answer: Its zone of inhibition at 100 µg/disc is 3.4 mm.

Question: With `Clc1cccc(B2NC(c3ccccc3)=NO2)c1` as the compound, how does the MIC [12] read?
Answer: The MIC was 0.09 µM (≈ 0.0231 µg/mL).

Question: What does the source list for `O=C(NCCCOCCOCCOCCCNC(=O)c1ccc2c(c1)B(O)OC2)c1ccc2c(c1)COB2O`?
Answer: MIC99 [2]: > 5 µM; MIC [3]: 1.56 µM

Question: With `OB1OCc2ccc(NCc3cc4ccccc4cc3Cl)cc21` as the compound, how does the IC50 [13] read?
Answer: Its IC50 is 11.9 µM.

Question: What about the IC50 [14] of the same compound?
Answer: Its IC50 is 2.7 µM.

Question: Which MIC [15] does the source give for `O=[N+]([O-])c1ccc([N+]2=C(c3ccccc3)C=C(C(Cl)(Cl)Cl)O[B-]2(F)F)cc1` here?
Answer: The MIC was 0.3 µg/mL (≈ 0.692 µM).

Question: Which zone of inhibition at 10000 µg/mL [16] does the source give for `CCN(CC)c1ccc(B2Oc3ccc(C(C)(C)C)cc3O2)cc1` here?
Answer: The zone of inhibition at 10000 µg/mL was 30.3 mm.

Question: Which MIC [17] does the source give for `CC1=NN2B(OB3c4ccccc4C(C)=NN3C2=O)c2ccccc21` here?
Answer: Its MIC is 32 µg/mL (≈ 97.6 µM).

Question: For `C[C@@H]1[C@H](O)[C@@H](C)/C=C/C=C/C=C/C=C/C=C/C=C/C=C/[C@H](O[C@@H]2O[C@H](C)[C@@H](O)[C@H](NS(=O)(=O)c3ccc4c(c3)OB(O)C4)[C@@H]2O)C[C@@H]2O[C@](O)(C[C@@H](O)C[C@@H](O)[C@H](O)CC[C@@H](O)C[C@@H](O)CC(=O)O[C@H]1C)C[C@H](O)[C@H]2C(=O)O`, which MIC [18] is on record?
Answer: Its MIC is 0.25 µg/mL (≈ 0.223 µM).

Question: And the MIC [19]?
Answer: Its MIC is 0.25 µg/mL (≈ 0.223 µM).

Question: What about the MIC [20] of the same compound?
Answer: Its MIC is 0.25 µg/mL (≈ 0.223 µM).

Question: And the MIC [21]?
Answer: The MIC was 0.25 µg/mL (≈ 0.223 µM).

Question: Which MIC [18] does the source give for `C[C@@H]1[C@H](O)[C@@H](C)/C=C/C=C/C=C/C=C/C=C/C=C/C=C/[C@H](O[C@@H]2O[C@H](C)[C@@H](O)[C@H](NC(=O)CCc3ccc4c(c3)OB(O)C4)[C@@H]2O)C[C@@H]2O[C@](O)(C[C@@H](O)C[C@@H](O)[C@H](O)CC[C@@H](O)C[C@@H](O)CC(=O)O[C@H]1C)C[C@H](O)[C@H]2C(=O)O` here?
Answer: The MIC was 0.5 µg/mL (≈ 0.45 µM).

Question: And the MIC [19]?
Answer: Its MIC is 0.5 µg/mL (≈ 0.45 µM).

Question: What about the MIC [20] of the same compound?
Answer: The MIC was 0.5 µg/mL (≈ 0.45 µM).

Question: And the MIC [21]?
Answer: Its MIC is 0.5 µg/mL (≈ 0.45 µM).

Question: With `NC(=S)N1N=Cc2ccccc2B1O` as the compound, how does the zone of inhibition at 25 µg/disc [22] read?
Answer: The zone of inhibition at 25 µg/disc was 6 mm.

Question: And the zone of inhibition at 50 µg/disc [23]?
Answer: Its zone of inhibition at 50 µg/disc is 3.7 mm.

Question: And the MIC [4]?
Answer: The MIC was 16 µg/mL (≈ 78 µM).

Question: And the MIC [5]?
Answer: Its MIC is 4 µg/mL (≈ 19.5 µM).

Question: What about the zone of inhibition at 50 µg/disc [24] of the same compound?
Answer: The zone of inhibition at 50 µg/disc was 3.1 mm.

Question: And the zone of inhibition at 25 µg/disc [25]?
Answer: Its zone of inhibition at 25 µg/disc is 7 mm.

Question: With `Clc1ccc(-c2noc3c2COB(c2ccc(Br)cc2)OC3)cc1` as the compound, how does the MIC [26] read?
Answer: The MIC was 25 µg/mL (≈ 61.8 µM).

Question: Which results are given for `O=C(NCCNC(=O)c1ccc2c(c1)B(O)OC2)c1ccc2c(c1)B(O)OC2`?
Answer: MIC99 [2]: > 5 µM; MIC [3]: 0.78 µM

Question: For `Brc1cccc(B2NC(c3ccccc3)=NO2)c1`, which MIC [12] is on record?
Answer: Its MIC is 0.08 µM (≈ 0.0241 µg/mL).

Question: For `O=[N+]([O-])c1cccc(B2NC(c3ccccc3)=NO2)c1`, which MIC [12] is on record?
Answer: The MIC was 0.09 µM (≈ 0.024 µg/mL).

Question: Which results are given for `COc1ccc(CN(C(=O)Nc2ccccc2)c2ccc3c(c2)B(O)OC3)cc1`?
Answer: IC50 [13]: 11.5 µM; IC50 [14]: 8.3 µM

Question: Which results are given for `O=C(c1ccncc1)N1N=Cc2ccccc2B1OB1c2ccccc2C=NN1C(=O)c1ccncc1`?
Answer: MIC [17]: 4 µg/mL (≈ 8.26 µM); MIC [3]: 32 µg/mL

Question: With `CC1(C)COB(c2ccccc2)N1` as the compound, how does the Activity [27] read?
Answer: Its Activity is 60%.

Question: For `CCCCB1NC(C)(C)CO1`, which Activity [28] is on record?
Answer: The Activity was 40%.

Question: For `CC1(C)OB(O)c2cc(NC(=O)c3ccc(F)cc3C(F)(F)F)ccc21` [ACOZIBOROLE], which Cmax [29] is on record?
Answer: Its Cmax is greater than 10000 ng/mL.

Question: And the AUC(0-t) at 24 h [30]?
Answer: The AUC(0-t) at 24 h was greater than 100000 ng·h/mL.

Question: Which AUC/dose [31] does the source give for `NC[C@H]1OB(O)c2c(OCCO)ccc(Cl)c21` [GANFEBOROLE] here?
Answer: The AUC/dose was 2.03 µg·h/mL.

Question: And the half-life [32]?
Answer: Its half-life is 3.6 h.

Question: What about the AUC [33] of the same compound?
Answer: Its AUC is 88200 ng·h/mL.

Question: What about the ED99 [34] of the same compound?
Answer: Its ED99 is 0.4 mg/kg.

Question: What about the AUC/dose [35] of the same compound?
Answer: The AUC/dose was 2.94 µg·h/mL.

Question: For `OB1OCc2cc(F)ccc21` [TAVABOROLE], which MIC [36] is on record?
Answer: Its MIC is 2 µg/mL (≈ 13.2 µM).
